We go through one substance from patent US20120276098A1, “DRUG FUSIONS AND CONJUGATES WITH EXTENDED HALF LIFE” (priority 2009, published 2012).

Marks after values point to notes of the source that are not given here.

Experiment [1] has as its target T1, GLP1R (Mus musculus, UniProt O35659).
T1 construct: expressed in transfected cells; host or cells: melanophores
T1 sequence (O35659 22-463): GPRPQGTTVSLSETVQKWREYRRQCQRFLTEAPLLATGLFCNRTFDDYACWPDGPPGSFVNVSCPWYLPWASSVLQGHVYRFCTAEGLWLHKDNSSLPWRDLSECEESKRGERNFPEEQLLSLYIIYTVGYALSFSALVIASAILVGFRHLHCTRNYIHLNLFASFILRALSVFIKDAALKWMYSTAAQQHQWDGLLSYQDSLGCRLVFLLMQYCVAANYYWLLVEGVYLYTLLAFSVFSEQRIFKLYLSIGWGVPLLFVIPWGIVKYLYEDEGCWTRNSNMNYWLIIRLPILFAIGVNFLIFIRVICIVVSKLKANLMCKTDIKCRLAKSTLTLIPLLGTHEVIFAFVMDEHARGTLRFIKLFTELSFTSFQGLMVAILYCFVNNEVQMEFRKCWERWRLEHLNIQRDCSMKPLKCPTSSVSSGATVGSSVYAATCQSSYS
As to the kind of experiment: melanophore functional bioassay, mouse GLP1R. The experiment is classed as cell-based. Conditions: melanophores transfected with receptor. As to the method:
(§1) The bioassay was performed essentially as described in Jayawickreme et al. (2005) Current Protocols in Pharmacology 12.9.1-12.9.16.

The subject of experiment [2] is diet induced obese (DIO) C57BL/6 mice. As to the kind of experiment: Chronic obesity efficacy study in diet induced obese (DIO) mice, peptide-AlbudAbs alone and combined. Type of experiment: in vivo, mouse. As to the method:
Male diet induced obese (DIO) C57BL/6 mice (Taconic, Hudson, N.Y.) and lean C57BL/6 mice (Taconic, Hudson, N.Y.) were used for all experiments. DIO C57BL/6 mice were group housed and fed a high fat diet (45% fat by kcal) by the vendor from the time of weaning. DIO mice (40-50 g body weight) and age-matched controls were single-housed and maintained at constant temperature (approximately 22° C.) with 12 hr light/dark cycle (lights on from 5:00 AM to 5:00 PM). Mice were given ad libitum access to food (Research Diets D12451, 45% fat for DIO; Lab Diet 5001, 13.5% fat for lean) and water. All animal protocols were approved by the institutional animal care and use committee at GlaxoSmithKline in Research Triangle Park, N.C. The peptide-AlbudAbs were either prepared fresh daily or were prepared once and frozen at −70 deg C. in aliquots. For combination dosing, the drugs were mixed together so that only one injection would be required.
Chronic Obesity Efficacy Studies: DIO C56BL/6 mice and age-matched lean controls were habituated in house for 6 weeks before the start of the study. Animals were dosed every two days between 2-4 pm subcutaneously with a dose volume of 5 ml/kg over a period of 15 days.
A three day vehicle lead in period was used before the start of drug with the first day being vehicle and the second two days being mock injections. Baseline fat mass and lean mass measurements were taken 3-4 days before the start of drug and on day 15 using a QMR instrument (Echo Medical Systems, Houston, Tex.) Body weight measurements were taken every Monday, Wednesday, and Friday starting four days before the first drug dose, with the first measurement being used to randomize the animals. Food hopper weights were measured every weekday starting 4-6 days before the first drug dose, allowing for the calculation of food intake. Animals that created excessive food spillage were removed prior to the beginning of the study. During the study, excess food was removed from the cage and added to the food hopper weights for increased accuracy. Eight to ten animals (n=8-10) were used for the lean control group and eight animals (n=8) were used for all other treatment groups. Sixteen days after the start of drug treatment, animals were fasted for at least 4 hours before collection of whole blood, plasma, and serum samples via terminal cardiac exsanguinations. The whole blood was used to determine the % HbAlc, the plasma was used for a gastrointestinal hormone panel, and the serum was used to access multiple clinical chemistry parameters. Finally, major organs and tissues were collected (heart, kidney, liver, lung, stomach, duodenum, colon, pancreas, brown adipose, white adipose, carcass) on day 16 and fixed in 10% neutral buffered formalin for macroscopic and microscopic histological examination.

The target of experiment [3] is GLP1R (Homo sapiens, UniProt P43220). As to the kind of experiment: melanophore functional bioassay, human GLP1R. The experiment is classed as cell-based. Further details: expressed in transfected cells; host or cells: melanophores. Conditions: melanophores transfected with receptor. As to the method: as §1
Sequence of GLP1R (Homo sapiens, UniProt P43220) (P43220 24-463): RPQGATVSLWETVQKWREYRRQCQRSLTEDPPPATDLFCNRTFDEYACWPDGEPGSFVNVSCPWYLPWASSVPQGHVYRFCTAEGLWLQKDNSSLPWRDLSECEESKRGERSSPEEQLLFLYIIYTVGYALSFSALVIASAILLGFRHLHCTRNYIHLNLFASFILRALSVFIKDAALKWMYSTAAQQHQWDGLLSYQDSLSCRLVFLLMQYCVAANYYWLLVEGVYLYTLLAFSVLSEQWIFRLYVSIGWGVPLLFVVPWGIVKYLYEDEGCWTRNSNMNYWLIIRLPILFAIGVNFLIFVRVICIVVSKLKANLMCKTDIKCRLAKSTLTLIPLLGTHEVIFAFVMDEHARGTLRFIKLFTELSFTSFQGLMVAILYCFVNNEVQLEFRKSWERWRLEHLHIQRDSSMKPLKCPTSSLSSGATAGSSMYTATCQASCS
[4] abbreviates: ED80 Doses: PYY-Alb 1.0 mg/kg, Exn-Alb 0.1 mg/kg, Combo.
[5] abbreviates: day 16, ED80 doses: Exendin-4-AlbudAb 0.1 mg/kg, Combo ED80.

With “DAT 0115: genetic fusion: exendin-4, (G4S)3 linker, 7h-14 AlbudAb, SEQ ID NO 2”, in the experiment with GLP1R [1], the “pEC50 Mouse GLP1R” value worked out at 11.06. For the same substance, in experiment [2] (15 day treatment, ED20 doses: PYY-AlbudAb 0.1 mg/kg, Exendin-4-AlbudAb 0.01 mg/kg, Combo ED20), the “decrease in percent body fat (normalized to changes in vehicle controls)” value is 0.6%. The “decrease in percent body fat” value in experiment [2] (15 day treatment, ED80 doses: PYY-AlbudAb 1.0 mg/kg, Exendin-4-AlbudAb 0.1 mg/kg, Combo ED80) is 6.8%. For the same substance, the “Insulin % Change from DIO Vehicle” value in experiment [2] (ED80 Doses: Exn-Alb 0.1 mg/kg, Combo) is “↓-56%”. Further, in experiment [2] (setting [4]), the “ALT % Change from DIO Vehicle” value was “↓-57%*”, the “AST % Change from DIO Vehicle” value is listed as “↓-41%*”, the “Creatinine % Change from DIO Vehicle” value was “↓-17%*” and the “Glucose % Change from DIO Vehicle” value is on record as “↓-27%*”. In addition, in experiment [2] (setting [4]), the “Total Bilirubin % Change from DIO Vehicle” value was “↑21%*” and the “Total Cholesterol % Change from DIO Vehicle” value is listed as “↓-24%*”. Further, the Ghrelin levels entry in experiment [2] (Exendin-4-AlbudAb monotherapy groups, level approximately equal to the combination groups) is recorded as “elevated”. Also, the “decrease in body weight relative to vehicle” value in experiment [2] (day 7, ED80 doses: PYY-AlbudAb 1.0 mg/kg, Exendin-4-AlbudAb 0.1 mg/kg, Combo ED80 = both mixed) is listed as 13.0%. In addition, in experiment [2] (day 14, ED80 doses: PYY-AlbudAb 1.0 mg/kg, Exendin-4-AlbudAb 0.1 mg/kg, Combo ED80), the “inhibition of feeding / food intake” value worked out at 0.8%. Further, in experiment [2] (day 15, ED20 doses: PYY-AlbudAb 0.1 mg/kg, Exendin-4-AlbudAb 0.01 mg/kg, Combo ED20 = both mixed, s.c. every two days), the “decrease in body weight vs. vehicle” value is 4.5%. For the same substance, the “decrease in body weight from vehicle” value in experiment [2] (day 15, ED80 doses: PYY-AlbudAb 1.0 mg/kg, Exendin-4-AlbudAb 0.1 mg/kg, Combo ED80 = both mixed) was determined as 16.8%. Besides, the “microscopic change in brown adipose tissue (histopathology)” value in experiment [2] (day 16, Combo ED20, Exendin-4-AlbudAb 0.01 mg/kg) was “decreased cytoplasmic lipid droplets”. For the same substance, the “microscopic change in brown adipose tissue (histopathology)” value in experiment [2] (day 16, Combo ED80, PYY-AlbudAb 1.0 mg/kg, Exendin-4-AlbudAb 0.1 mg/kg, Exendin-4 0.1 mg/kg) is reported as “decreased cytoplasmic lipid droplets”. Further, in experiment [2] (setting [5]), the “Amylin levels in plasma” value came to 163 pg/mL and the “Leptin levels in plasma” value was 31.4 ng/mL. Further, in experiment [2] (treatment period, ED20 doses: PYY-AlbudAb 0.1 mg/kg, Exendin-4-AlbudAb (dose not given), Combo ED20), the fat mass lost is listed as 1.4 grams. The body fat lost in experiment [2] (treatment period, ED80 doses: PYY-AlbudAb 1.0 mg/kg, Exendin-4-AlbudAb (dose not given), Combo ED80) turned out to be 5.7 grams. The “pEC50 Human GLP1R” value with GLP1R [3] is recorded as 11.36.
